Experimental data: patent US12486278B2, “MASP-2 inhibitors and methods of use” (Omeros Corporation, priority 2019, dated 2025)
Where a name gives a salt, the structure may show the parent alone.

Biological target: T1, MASP-2 (CCP1-CCP2-SP) (Homo sapiens, UniProt O00187)
T1 construct: 15 μL of Enzyme MASP-2 (CCP1-CCP2-SP) in Assay Buffer
Test: Enzymatic Assay for MASP-2 (fluorogenic substrate)
Assay type: biochemical
Settings: fluorogenic substrate based on C2 cleavage site; room temperature, 20 min; 20 mM HEPES pH 7.4, 140 mM NaCl, 0.1% Tween 20
Description: The MASP-2 assay utilizes a fluorogenic substrate, based on the cleavage site for its natural substrate C2. The assay is run at room temperature in an assay buffer containing 20 mM HEPES, pH 7.4, 140 mM NaCl and 0.1% Tween 20. Assay parameters are adjusted such that the assay is linear with respect to time, enzyme, and substrate concentrations. Under these optimized assays conditions, IC50 values are equivalent to Ki values, except in a few cases of “tight binding” inhibitors. Cases of “tight binding” or possible “slow binding” inhibitors are handled by the methods described in Copeland R. A. (2013) Evaluation of Enzyme Inhibitors in Drug Discovery. 2nd Ed., John Wiley and Sons, Inc., Chapters 5-7.
The MASP-2 assay protocol is carried out as follows. Test compounds are serially diluted in DMSO and then 100 nL of each dilution is transferred to the assay plate(s). 10 μL of Assay Buffer is added, followed by 15 μL of Enzyme MASP-2 (CCP1-CCP2-SP) in Assay Buffer. 15 μL of Substrate in Assay Buffer is then added and mixed to start the reactions. After 20 min at room temperature, 15 μL of a stop solution (0.1 M acetic acid) is added, mixed and the plates are read on a SpectraMax i3x Microplate Reader and exported as Excel files. Each assay plate included a “no inhibitor” (DMSO Only) control, a “no enzyme” control and a reference inhibitor control. % Activity values=100*(average test comp. fluorescence−average “no enzyme” fluorescence)/(average “DMSO only” fluorescence−average “no enzyme” fluorescence). IC50 and Ki values are very reproducible, falling well within ±2-fold.

T1 sequence (O00187 445-686 limits assumed): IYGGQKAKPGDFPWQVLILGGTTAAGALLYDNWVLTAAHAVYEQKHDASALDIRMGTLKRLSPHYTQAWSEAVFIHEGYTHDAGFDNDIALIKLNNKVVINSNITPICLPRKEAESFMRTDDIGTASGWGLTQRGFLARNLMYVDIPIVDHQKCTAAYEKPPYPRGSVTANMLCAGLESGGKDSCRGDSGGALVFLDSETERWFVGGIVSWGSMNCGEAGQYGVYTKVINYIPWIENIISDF
T1 sequence (O00187 298-444 partner limits assumed): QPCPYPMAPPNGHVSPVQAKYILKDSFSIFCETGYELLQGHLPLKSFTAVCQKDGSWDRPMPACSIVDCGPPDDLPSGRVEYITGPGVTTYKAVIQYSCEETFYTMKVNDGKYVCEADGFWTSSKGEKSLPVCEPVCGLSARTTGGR

Ki [nM]	Compound
< 500	Cc1nc(N)ccc1CNC(=O)[C@H](C)NC(=O)[C@H]1C[C@H](Cc2ccc3c(C)cccc3c2)CN1 [Compound I-85, (2R,4S)—N—((S)-1-(((6-Amino-2-Methylpyridin-3-Yl)Methyl)Amino)-1-Oxopropan-2-Yl)-4-((5-Methylnaphthalen-2-Yl)Methyl)Pyrrolidine-2-Carboxamide Dihydrochloride]
< 500	Cc1nc(N)ccc1CNC(=O)[C@H](C)NC(=O)[C@H]1C[C@H](Cc2ccn(C)c(=O)c2)CN1 [Compound I-53, (2R,4S)—N—((S)-1-(((6-Amino-2-Methylpyridin-3-Yl)Methyl)Amino)-1-Oxopropan-2-Yl)-4-((1-Methyl-2-Oxo-1,2-Dihydropyridin-4-Yl)Methyl)Pyrrolidine-2-Carboxamide Di-Trifluoroacetate]
< 500	Cc1nc(N)ccc1CNC(=O)[C@H](C)NC(=O)[C@H]1C[C@H](Cc2cccc(-c3ccc(F)cc3)c2)CN1 [Compound I-81, (2R,4S)—N—((S)-1-(((6-Amino-2-Methylpyridin-3-Yl)Methyl)Amino)-1-Oxopropan-2-Yl)-4-((4′-Fluoro-[1,1′-Biphenyl]-3-Yl)Methyl)Pyrrolidine-2-Carboxamide Di-Trifluoroacetate]
< 500	O=C(NCc1cc(Cl)ccc1-n1cnnn1)[C@@H]1CCN1C(=O)[C@H]1C[C@@H](c2ccc(-c3ccccc3)cc2)CCN1 [Compound I-103, (S)-1-((2R,4S)-4-([1,1′-Biphenyl]-4-yl)piperidine-2-carbonyl)-N-(5-chloro-2-(1H-tetrazol-1-yl)benzyl)azetidine-2-carboxamide trifluoroacetate]
< 500	CC(NC(=O)[C@H]1C[C@@H](c2ccccc2)CCN1CC(=O)O)C(=O)NCc1cc2cnccc2[nH]1 (stereo in doubt) [Compound I-104, 2-((2R,4S)-2-(((R)-1-(((1H-pyrrolo[3,2-c]pyridin-2-yl)methyl)amino)-1-oxopropan-2-yl)carbamoyl)-4-phenylpiperidin-1-yl)acetic acid di-trifluoroacetate]
< 500	Cc1nc(N)ccc1CNC(=O)[C@H](C)NC(=O)[C@H]1C[C@H](Cc2cccc(C(=O)NCCCCl)c2)CN1 [Compound I-49, (2R,4S)—N—((S)-1-(((6-Amino-2-Methylpyridin-3-Yl)Methyl)Amino)-1-Oxopropan-2-Yl)-4-(3-((3-Chloropropyl)Carbamoyl)Benzyl)Pyrrolidine-2-Carboxamide Di-Trifluoroacetate]
< 500	COC(=O)c1ccc(C[C@@H]2CN[C@@H](C(=O)N[C@@H](C)C(=O)NCc3ccc(N)nc3C)C2)cc1 [Compound I-50, Methyl 4-(((3S,5R)-5-(((S)-1-(((6-Amino-2-Methylpyridin-3-Yl)Methyl)Amino)-1-Oxopropan-2-Yl)Carbamoyl)Pyrrolidin-3-Yl)Methyl)Benzoate Dihydrochloride]
2500 to 10000	C[C@H](NC(=O)[C@H]1C[C@H](Cc2ccccc2)CN1)C(=O)NCc1ccc2c(c1)ncn2C [Compound I-30, (2R,4S)-4-Benzyl-N—((S)-1-(((1-Methyl-1H-Benzo[D]Imidazol-5-Yl)Methyl)Amino)-1-Oxopropan-2-Yl)Pyrrolidine-2-Carboxamide Trifluoroacetate]
> 10000	C[C@H](NC(=O)[C@H]1C[C@H](Cc2ccccc2)CN1)C(=O)NCc1ccc2ncc(Cl)n2c1 [Compound I-60, (2R,4S)-4-Benzyl-N—((S)-1-(((3-Chloroimidazo[1,2-A]Pyridin-6-Yl)Methyl)Amino)-1-Oxopropan-2-Yl)Pyrrolidine-2-Carboxamide Trifluoroacetate]
< 500	Cc1nc(N)ccc1CNC(=O)[C@H](C)NC(=O)[C@H]1C[C@@H](c2cccc(-n3cccn3)c2)CCN1 [Compound I-78, (2R,4S)-4-(3-(1H-Pyrazol-1-Yl)Phenyl)-N—((S)-1-(((6-Amino-2-Methylpyridin-3-Yl)Methyl)Amino)-1-Oxopropan-2-Yl)Piperidine-2-Carboxamide Dihydrochloride]
< 500	C[C@H](NC(=O)[C@H]1C[C@@H](c2ccc(F)cc2)CCN1)C(=O)NCc1ccc(C(=N)N)cc1 [Compound I-67]
< 500	C[C@H](NC(=O)[C@H]1C[C@H](c2ccccc2)CN1CC(=O)O)C(=O)NCc1ccc(C(=N)N)cc1 [Compound I-35, 2-((2R,4R)-2-(((S)-1-((4-Carbamimidoylbenzyl)Amino)-1-Oxopropan-2-Yl)Carbamoyl)-4-Phenylpyrrolidin-1-Yl)Acetic Acid Di-Trifluoroacetate]
< 500	C[C@H](NC(=O)[C@H]1C[C@H](Cc2ccc(F)c(Cl)c2)CN1)C(=O)NCc1cnc2[nH]cc(Cl)c2c1 [Compound I-25, (2R,4S)—N—((S)-1-(((3-Chloro-1H-Pyrrolo[2,3-B]Pyridin-5-Yl)Methyl)Amino)-1-Oxopropan-2-Yl)-4-(3-Chloro-4-Fluorobenzyl)Pyrrolidine-2-Carboxamide Trifluoroacetate]
2500 to 10000	C[C@H](NC(=O)[C@H]1C[C@@H](c2ccccc2)CCN1)C(=O)NCc1ccc(C#N)s1 [Compound I-92, (2R,4S)—N—((S)-1-(((5-Cyanothiophen-2-yl)methyl)amino)-1-oxopropan-2-yl)-4-phenylpiperidine-2-carboxamide hydrochloride]
< 500	C[C@H](NC(=O)[C@H]1C[C@@H](c2ccc(-c3cccnc3)cc2)CCN1)C(=O)NCc1cc2cnccc2[nH]1 [Compound I-73, (2R,4S)—N—((S)-1-(((1H-Pyrrolo[3,2-C]Pyridin-2-Yl)Methyl)Amino)-1-Oxopropan-2-Yl)-4-(4-(Pyridin-3-Yl)Phenyl)Piperidine-2-Carboxamide Tri-Trifluoroacetate]
< 500	C[C@H](NC(=O)[C@H]1C[C@H](Cc2cc(Br)c(Cl)s2)CN1)C(=O)NCc1cc2cnccc2[nH]1 [Compound I-21, (2R,4R)—N—((S)-1-(((1H-Pyrrolo[3,2-C]Pyridin-2-Yl)Methyl)Amino)-1-Oxopropan-2-Yl)-4-((4-Bromo-5-Chlorothiophen-2-Yl)Methyl)Pyrrolidine-2-Carboxamide Di-Trifluoroacetate]
< 500	C[C@H](NC(=O)[C@H]1C[C@H](Oc2ccccc2)CN1)C(=O)NCc1ccc(C(=N)N)cc1 [Compound I-96, (2R,4S)—N—((S)-1-((4-Carbamimidoylbenzyl)amino)-1-oxopropan-2-yl)-4-phenoxypyrrolidine-2-carboxamide di-trifluoroacetate]
< 500	Cc1nc(N)ccc1CNC(=O)[C@H](C)NC(=O)[C@H]1C[C@H](Cc2cccc(C(=O)O)c2)CN1 [Compound I-48, 3-(((3S,5R)-5-(((S)-1-(((6-Amino-2-Methylpyridin-3-Yl)Methyl)Amino)-1-Oxopropan-2-Yl)Carbamoyl)Pyrrolidin-3-Yl)Methyl)Benzoic Acid Di-Trifluoroacetate]
500 to 2500	Cc1nc(N)ccc1CNC(=O)[C@@H]1COCCN1C(=O)[C@H]1C[C@H](Cc2ccccc2)CN1 [Compound I-12, (S)—N-((6-Amino-2-Methylpyridin-3-Yl)Methyl)-4-((2R,4S)-4-Benzylpyrrolidine-2-Carbonyl)Morpholine-3-Carboxamide Di-Trifluoroacetate]
< 500	COc1cccc([C@@H]2CN[C@@H](C(=O)N[C@@H](C)C(=O)NCc3ccc(C(=N)N)cc3)C2)c1 [Compound I-16, (2R,4R)—N—((S)-1-((4-Carbamimidoylbenzyl)Amino)-1-Oxopropan-2-Yl)-4-(3-Methoxyphenyl)Pyrrolidine-2-Carboxamide Dihydrochloride]
< 500	C[C@H](NC(=O)[C@H]1C[C@@H](c2ccc(-c3ccccc3)cc2)CCN1)C(=O)NCc1cc(Cl)ccc1-n1cnnn1 [Compound I-102, (2R,4S)-4-([1,1′-Biphenyl]-4-yl)-N—((S)-1-((5-chloro-2-(1H-tetrazol-1-yl)benzyl)amino)-1-oxopropan-2-yl)piperidine-2-carboxamide trifluoroacetate]
500 to 2500	C[C@H](NC(=O)[C@H]1C[C@@H](c2ccccc2)CCN1CCCP(=O)(O)O)C(=O)NCc1cc(Cl)ccc1-n1cnnn1 [Compound I-40, (3-((2R,4S)-2-(((S)-1-((5-Chloro-2-(1H-Tetrazol-1-Yl)Benzyl)Amino)-1-Oxopropan-2-Yl)Carbamoyl)-4-Phenylpiperidin-1-Yl)Propyl)Phosphonic Acid Di-Trifluoroacetate]
< 500	C[C@H](NC(=O)[C@H]1C[C@@H](c2ccccc2)CCN1CCC(=O)O)C(=O)NCc1ccc(C(=N)N)cc1 [Compound I-32, 3-((2R,4S)-2-(((S)-1-((4-Carbamimidoylbenzyl)Amino)-1-Oxopropan-2-Yl)Carbamoyl)-4-Phenylpiperidin-1-Yl)Propanoic Acid Di-Trifluoroacetate]
< 500	C[C@H](NC(=O)[C@H]1C[C@H](Cc2ccccc2)CN1)C(=O)NCc1cc2c(s1)CNC2 [Compound I-99, (2R,4S)-4-Benzyl-N—((S)-1-(((5,6-Dihydro-4H-Thieno[2,3-C]Pyrrol-2-Yl)Methyl)Amino)-1-Oxopropan-2-Yl)Pyrrolidine-2-Carboxamide Di-Trifluoroacetate Salt]
